Measurements as given in PubChem BioAssay (NCI).
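Exposure lasted 48 hours, with cells grown in 96-well plates and compounds tested at five concentrations. TGI: concentration producing complete growth inhibition.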

Key:
Assay in all cases: NCI tumour cell line growth inhibition, 48 h
[1] = test system: 786-0 renal
[2] = test system: A498 renal
[3] = test system: A549 NSCLC
[4] = test system: ACHN renal
[5] = test system: BT-549 breast
[6] = test system: CAKI-1 renal
[7] = test system: CCRF-CEM leukemia
[8] = test system: COLO 205 colon
[9] = test system: DU-145 prostate
[10] = test system: EKVX NSCLC
[11] = test system: HCC-2998 colon
[12] = test system: HCT-116 colon
[13] = test system: HCT-15 colon
[14] = test system: HL-60(TB) leukemia
[15] = test system: HOP-62 NSCLC
[16] = test system: HOP-92 NSCLC
[17] = test system: HS 578T breast
[18] = test system: HT29 colon
[19] = test system: IGROV1 ovarian
[20] = test system: K-562 leukemia
[21] = test system: KM12 colon
[22] = test system: LOX IMVI melanoma
[23] = test system: M14 melanoma
[24] = test system: MALME-3M melanoma
[25] = test system: MCF7 breast
[26] = test system: MDA-MB-231 breast
[27] = test system: MDA-MB-435
[28] = test system: MDA-N
[29] = test system: MOLT-4 leukemia
[30] = test system: NCI-H226 lung
[31] = test system: NCI-H23 lung
[32] = test system: NCI-H460 lung
[33] = test system: NCI-H522 lung
[34] = test system: NCI/ADR-RES ovarian
[35] = test system: OVCAR-3 ovarian
[36] = test system: OVCAR-4 ovarian
[37] = test system: OVCAR-5 ovarian
[38] = test system: OVCAR-8 ovarian
[39] = test system: PC-3 prostate
[40] = test system: RPMI-8226 leukemia
[41] = test system: SF-268 CNS
[42] = test system: SF-295 CNS
[43] = test system: SF-539 CNS
[44] = test system: SK-MEL-2 melanoma
[45] = test system: SK-MEL-28 melanoma
[46] = test system: SK-MEL-5 melanoma
[47] = test system: SK-OV-3 ovarian
[48] = test system: SN12C renal
[49] = test system: SNB-19 CNS
[50] = test system: SNB-75 CNS
[51] = test system: SR leukemia
[52] = test system: SW-620 colon
[53] = test system: T-47D breast
[54] = test system: TK-10 renal
[55] = test system: U251 CNS
[56] = test system: UACC-257 melanoma
[57] = test system: UACC-62 melanoma
[58] = test system: UO-31 renal

Measured: TGI

COc1ccc(C(c2ccc(OC)cc2)N2C(=O)CCC2C(=O)O)cc1 (stereo not drawn)
> 100 µM: all assays above
